According to patent US8791099B2, “Transition metal complexes of corroles for preventing cardiovascular diseases or disorders” (Technion Research and Development Foundation Ltd., priority 2007, dated 2014):

Columns and labels:
[1] = Decomposition of peroxynitrite, comparison with punicalagin; details: calculated from rate constants
Description: For initial assessment of possible superiority of the metallocorroles relative to natural antioxidants, we have determined the effect of excess (45-135 μM) punicalagin—the active polyphenolic hydrolysable tannin ingredient of pomegranate juice (Tzulker et al., 2007), on decomposition of peroxynitrite (40 μM).

[2] = tested on: mouse peritoneal macrophages (MPM); assay: Cholesterol synthesis by MPM of treated E^0 mice; details: drinking water 0.04 mM (8 mg/Kg/day), 14 weeks
Description: Cellular cholesterol biosynthesis was assayed after incubation of macrophages (3×10^6 well^−1) overnight with DMEM containing 2% BSA followed by additional 3 h of incubation at 37° C. with [^3H]-acetate (3.3 μCi/ml). Cellular lipids were extracted with hexane:isopropanol (3:2, v:v), and the upper phase was dried under nitrogen. The lipids were then separated by TLC using an eluent of hexane:ether:acetic acid (130:30:1.5, v:v:v). Unesterified cholesterol spots were visualized by iodine vapor (by using standard for identification) and counted with β-counter.

[3] = tested on: J-774 macrophages; assay: Cholesterol efflux from J-774 macrophages by serum of treated E^0 mice; details: drinking water 0.04 mM (8 mg/Kg/day), 14 weeks
Description: J-774 macrophages were incubated with [^3H]-labeled cholesterol for 1.5 h at 37° C. followed by cell wash in ice-cold PBS (3×) and further incubation in the presence of 15 μL mice serum for 3 h at 37° C. Cellular and medium [^3H]-labels were quantitated and HDL-mediated cholesterol efflux was calculated as the ratio of [^3H]-label in the medium/[^3H]-label in the medium+[^3H]-label in cells.

[4] = tested on: mouse peritoneal macrophages (MPM); assay: Cholesterol efflux from MPM of treated E^0 mice; details: drinking water 0.04 mM (8 mg/Kg/day), 14 weeks
Description: Mouse peritoneal macrophages were incubated with [^3H]-labeled cholesterol for 1 h at 37° C. followed by cell wash in ice-cold PBS (3×) and further incubation in the absence or presence of 100 μg of human HDL protein/ml for 3 h at 37° C. Cellular and medium [^3H]-labels were quantitated and HDL-mediated cholesterol efflux was calculated as the ratio of [^3H]-label in the medium/[^3H]-label in the medium+[^3H]-label in cells.

SMILES	Minimal concentration required for reducing the half lifetime of peroxynitrite by 50% [1] [mol %]	Increase of cholesterol synthesis by MPMs [2] [%]	Increase in serum-mediated cholesterol efflux from J-774 macrophages [3] [%]	Increase in cholesterol efflux from the E^0 MPM [4] [%]
O=C1O[C@H]2[C@@H]3OC(=O)c4cc(O)c(O)c(O)c4-c4c(O)c(O)c5oc(=O)c6c(c(O)c(O)c7oc(=O)c4c5c76)-c4c(cc(O)c(O)c4O)C(=O)OC[C@H]3OC(O)[C@@H]2OC(=O)c2cc(O)c(O)c(O)c2-c2c1cc(O)c(O)c2O (mixture of isomers) [punicalagin, reference compound]	250	–	–	–
COc1c(F)c(F)c(C2=C3C=CC(=N3)C(c3c(F)c(F)c(OC)c(F)c3F)=c3ccc4[n]3[Fe]3[n]5c(cc(S(=O)(=O)O)c5C=4c4c(F)c(F)c(OC)c(F)c4F)-c4c(S(=O)(=O)O)cc2[n]43)c(F)c1F [2-Fe, 5,10,15-tris(4-methoxy-2,3,5,6-tetrafluorophenyl)-2,17-bis(sulfonic acid)-corrolato iron(III)]	–	8	9	14
